Assays:
[1] = tested on: Ovarian carcinoma cell; assay: (§1) Percentage of fucosyltransferase accepted by the compound in alpha-L-(1-3) fucosyltransferase assay using [14C]fucose as a ligand; format: functional, Homo sapiens
[2] = species: Homo sapiens; assay: Relative activity was determined at 0.3 mM of compound in ovarian cancer sera in alpha-L-(1-3) fucosyltransferase assay using [14C]-fucose as a ligand; format: functional
[3] = species: Homo sapiens; assay: as §1; format: functional
[4] = tested on: Ovarian carcinoma cell; assay: Relative activity was determined at 0.3 mM of compound in ovarian-tumor extract in alpha-L-(1-3) fucosyltransferase assay using [14C]fucose as a ligand; format: functional, Homo sapiens
[5] = Kinetic constant of the enzyme activity was determined by incorporation of [14C]- fucose as a function of acceptor concentration
[6] = tested on: Ovarian carcinoma cell; assay: Percentage of fucosyltransferase accepted by the compound in alpha-L-(1-3) fucosyltransferase assay using [14C]-fucose as a ligand; format: functional, Homo sapiens
[7] = species: Homo sapiens; assay: Percentage of fucosyltransferase accepted by the compound in alpha-L-(1-3) fucosyltransferase assay using [14C]fucose as a ligand;=; format: functional

Row | Relative activity [3] [%] | Km [5] [µM] | Relative activity [7] [%] | Compound | Relative activity [1] [%] | Relative activity [2] [c.p.m.] | Relative activity [4] [c.p.m.] | Relative activity [6] [%]
1 | 100 |  |  | CC(=O)N[C@@H]1[C@@H](O)[C@H](O[C@@H]2O[C@H](CO)[C@H](O)[C@H](O)[C@H]2O[C@@H]2O[C@@H](C)[C@@H](O)[C@@H](O)[C@@H]2O)[C@@H](CO)O[C@H]1O | 100 | 4380 | 18291 | 
2 |  |  |  | CC(=O)N[C@@H]1[C@@H](O)[C@H](O[C@@H]2O[C@H](CO)[C@H](O)[C@H](O)[C@H]2O)[C@@H](CO)O[C@H]1O |  | 1620 | 5024 | 
3 |  | 260 | 168 | CC(=O)N[C@H]1[C@H](OCc2ccccc2)O[C@H](CO)[C@@H](O[C@@H]2O[C@H](CO)[C@H](O)[C@H](O)[C@H]2O[C@@H]2O[C@@H](C)[C@@H](O)[C@@H](O)[C@@H]2O)[C@@H]1O |  | 7350 | 42580 | 233
4 | 308 | 440 |  | CO[C@H]1[C@H](O[C@H]2[C@H](O)[C@@H](NC(C)=O)[C@H](OCc3ccccc3)O[C@@H]2CO)O[C@H](CO)[C@H](O)[C@@H]1O | 375 | 5330 | 14924 | 
5 | 100 | 1330 |  | CO[C@H]1[C@H](O[C@H]2[C@H](O)[C@@H](NC(C)=O)C(O)O[C@@H]2CO)O[C@H](CO)[C@H](O)[C@@H]1O (stereo partly specified) |  | 1730 | 3977 | 100
